Experimental data published in ChEMBL document CHEMBL5385844, “Discovery of novel imidazole chemotypes as isoform-selective JNK3 inhibitors for the treatment of Alzheimer's disease” (Eur J Med Chem, 2023).
Activity calls are given as the source filed them. The calls are words filed in the database; no cut-off is given here.

Key:
[1] = target: Mitogen-activated protein kinase 10 (Homo sapiens, UniProt P53779); test: Inhibition of human JNK3 incubated for 40 mins in presence of ATP and [gamma33P-ATP] by scintillation counting method
[2] = target: T1, Mitogen-activated protein kinase 9 (Homo sapiens, UniProt P45984); test: Inhibition of JNK2 (unknown origin) by ATP-competitive assay
[3] = target: T2, Mitogen-activated protein kinase 8 (Homo sapiens, UniProt P45983); test: Inhibition of JNK1 (unknown origin) by ATP-competitive assay
[4] = target: T2, Mitogen-activated protein kinase 8; test: Inhibition of human JNK1 incubated for 40 mins in presence of ATP and [gamma33P-ATP] by scintillation counting method
[5] = target: T1, Mitogen-activated protein kinase 9; test: Inhibition of human JNK2 incubated for 40 mins in presence of ATP and [gamma33P-ATP] by scintillation counting method
[6] = test system: Cortical neurone; test: Neuroprotective activity against Amyloid beta (1 to 42)-induced toxicity in rat cortical neuron assessed as cell viability measured after 24 to 48 hrs by MTT assay; assay type: functional, cell-based; settings: time 24-48 hrs
[7] = target: T2, Mitogen-activated protein kinase 8; test: Inhibition of JNK1 (unknown origin) assessed as incorporation of 33P-ATP

T1 sequence (P45984 whole entry): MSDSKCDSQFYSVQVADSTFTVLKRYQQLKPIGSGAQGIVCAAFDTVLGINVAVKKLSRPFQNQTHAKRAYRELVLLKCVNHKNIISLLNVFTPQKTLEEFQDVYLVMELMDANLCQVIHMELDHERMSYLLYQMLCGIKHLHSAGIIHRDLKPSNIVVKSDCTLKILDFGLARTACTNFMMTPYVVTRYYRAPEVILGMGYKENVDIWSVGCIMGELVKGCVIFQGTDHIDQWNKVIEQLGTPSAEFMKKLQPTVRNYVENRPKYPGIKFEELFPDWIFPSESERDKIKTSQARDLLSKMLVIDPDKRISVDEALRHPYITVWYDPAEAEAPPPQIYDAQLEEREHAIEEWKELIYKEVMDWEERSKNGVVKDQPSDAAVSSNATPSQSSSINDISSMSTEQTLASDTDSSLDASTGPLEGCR
T2 sequence (P45983 whole entry): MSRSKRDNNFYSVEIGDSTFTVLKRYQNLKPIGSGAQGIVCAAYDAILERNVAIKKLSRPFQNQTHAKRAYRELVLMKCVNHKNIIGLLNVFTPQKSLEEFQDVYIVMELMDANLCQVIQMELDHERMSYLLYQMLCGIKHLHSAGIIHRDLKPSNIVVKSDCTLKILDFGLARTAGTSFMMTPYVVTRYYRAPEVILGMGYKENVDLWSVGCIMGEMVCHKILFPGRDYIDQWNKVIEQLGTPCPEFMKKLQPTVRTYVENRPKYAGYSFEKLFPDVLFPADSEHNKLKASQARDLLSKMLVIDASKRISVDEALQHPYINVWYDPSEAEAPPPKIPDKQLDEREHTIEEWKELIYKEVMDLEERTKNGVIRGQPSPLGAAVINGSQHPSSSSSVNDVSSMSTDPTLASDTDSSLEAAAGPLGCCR
Chain of Mitogen-activated protein kinase 10 (P53779 whole entry): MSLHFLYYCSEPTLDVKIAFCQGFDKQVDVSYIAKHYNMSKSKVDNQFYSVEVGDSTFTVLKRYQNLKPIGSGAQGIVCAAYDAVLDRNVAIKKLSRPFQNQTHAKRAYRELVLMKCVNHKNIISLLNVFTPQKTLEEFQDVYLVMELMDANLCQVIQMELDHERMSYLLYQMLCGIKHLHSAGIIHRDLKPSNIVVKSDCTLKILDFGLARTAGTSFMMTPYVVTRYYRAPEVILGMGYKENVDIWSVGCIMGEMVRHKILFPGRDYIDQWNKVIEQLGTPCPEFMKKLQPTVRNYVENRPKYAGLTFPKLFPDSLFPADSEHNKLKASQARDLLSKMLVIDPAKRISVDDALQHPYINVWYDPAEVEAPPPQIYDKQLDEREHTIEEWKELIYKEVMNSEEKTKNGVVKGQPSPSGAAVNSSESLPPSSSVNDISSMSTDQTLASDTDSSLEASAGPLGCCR

N#CCc1cnc(C2=CC3OCOC3C=C2)n1-c1ccnc(N[C@H]2CCCNC2)n1 (stereo partly drawn)
IC50 ([1]; read-out: IC50): > 10000 nM

C[C@@H](O)CNc1nccc(-n2c(CC#N)cnc2-c2ccc3c(c2)OCCO3)n1
IC50 ([1]; read-out: IC50): 9840 nM

N#CCc1cnc(-c2ccc(F)c(C(F)(F)F)c2)n1-c1ccnc(N[C@H]2CCCNC2)n1
IC50 [1]: Not Active

N#CCc1cnc(-c2ccc3ccccc3c2)n1-c1ccnc(N[C@H]2CCCNC2)n1
IC50 ([1]; read-out: IC50): > 10000 nM

O=C1c2ccccc2C2=NNC3=CC=CC1C32 (stereo not drawn)
IC50 [2]: 40 nM | IC50 [3]: 40 nM

C[C@@H](O)CNc1nccc(-n2c(CC#N)cnc2-c2ccc(F)c(C(F)(F)F)c2)n1
IC50 ([1]; read-out: IC50): > 10000 nM

N#CCc1cnc(-c2ccc3ccccc3n2)n1-c1ccnc(NC2CCCCC2)n1
IC50 ([1]; read-out: IC50): > 10000 nM

N#CCc1cnc(-c2ccc(F)c(C(F)(F)F)c2)n1-c1ccnc(N[C@H]2CCCN(C(=O)C3CC3)C2)n1
IC50 ([1]; read-out: IC50): 3280 nM

N#CCc1cnc(-c2ccc(Cl)c(Cl)c2)n1-c1ccnc(NC2CCCCC2)n1
IC50 ([1]; read-out: IC50): 611 nM

N#CCc1cnc(-c2ccc3ccccc3n2)n1-c1ccnc(N[C@H]2CCCN(C(=O)C3CC3)C2)n1
IC50 ([1]; read-out: IC50): 396 nM

N#CCc1cnc(-c2ccc3occc3c2)n1-c1ccnc(N[C@H]2CCCN(C(=O)C3CC3)C2)n1
IC50 [4]: 359 nM | IC50 ([1]; read-out: IC50): 6.2 nM | IC50 [5]: 268 nM

N#CCc1cnc(-c2ccc3ccccc3n2)n1-c1ccnc(NC2CCOCC2)n1
IC50 ([1]; read-out: IC50): 13500 nM

N#CCc1cnc(-c2ccc3c(c2)OCCO3)n1-c1ccnc(NC2CCCCC2)n1
IC50 ([1]; read-out: IC50): 6270 nM

N#CCc1cnc(-c2ccc(F)c(C(F)(F)F)c2)n1-c1ccnc(NC2CCCCC2)n1
IC50 ([1]; read-out: IC50): 10000 nM

N#CCc1cnc(-c2ccc3ccccc3c2)n1-c1ccnc(Nc2cccc(C(=O)C3CC3)c2)n1
IC50 [4]: 1730 nM | IC50 ([1]; read-out: IC50): 7 nM | IC50 [5]: 287 nM

Oc1ccc(/C=C/c2cc(O)cc(O)c2)cc1
Activity [6]: Active

N#CCc1cnc(-c2ccc3ccccc3c2)n1-c1ccnc(N[C@@H]2CCCN(C(=O)C3CC3)C2)n1
IC50 [4]: 211 nM | IC50 ([1]; read-out: IC50): 5 nM | IC50 [5]: 66.1 nM

NC(=O)N1Cc2nc(-c3ccc(Cl)c(Cl)c3)n(-c3ccnc(N[C@@H]4CCN(C(=O)C5CC5)C4)n3)c2C1
IC50 [7]: > 3000 nM

N#CCc1cnc(-c2ccc(Cl)c(Cl)c2)n1-c1ccnc(NC2CCOCC2)n1
IC50 ([1]; read-out: IC50): 290 nM

C[C@@H](O)CNc1nccc(-n2c(CC#N)cnc2-c2ccc3c(c2)OCO3)n1
IC50 ([1]; read-out: IC50): > 10000 nM

N#CCc1cnc(C2=CC3OCCOC3C=C2)n1-c1ccnc(N[C@H]2CCCNC2)n1 (stereo partly drawn)
IC50 ([1]; read-out: IC50): > 10000 nM
